From paper PMC5063830, “Design and synthesis of chalcone derivatives as potential non-purine xanthine oxidase inhibitors” (SpringerPlus, 2016)
Values belong to the compound of their own block, whether it stands above or below them.

Legend:
[1] = biological target: xanthine oxidase (Bos taurus, UniProt P80457); experiment: Assessment of xanthine oxidase inhibitory activity (spectrophotometric, 290 nm); format: biochemical; details: for IC50: 150 μM xanthine, 70 mM phosphate buffer pH 7.5, 25 °C, mean of four determinations, read-out: XO inhibitory activity IC50
xanthine oxidase, sequence (P80457 2-1332 limits assumed): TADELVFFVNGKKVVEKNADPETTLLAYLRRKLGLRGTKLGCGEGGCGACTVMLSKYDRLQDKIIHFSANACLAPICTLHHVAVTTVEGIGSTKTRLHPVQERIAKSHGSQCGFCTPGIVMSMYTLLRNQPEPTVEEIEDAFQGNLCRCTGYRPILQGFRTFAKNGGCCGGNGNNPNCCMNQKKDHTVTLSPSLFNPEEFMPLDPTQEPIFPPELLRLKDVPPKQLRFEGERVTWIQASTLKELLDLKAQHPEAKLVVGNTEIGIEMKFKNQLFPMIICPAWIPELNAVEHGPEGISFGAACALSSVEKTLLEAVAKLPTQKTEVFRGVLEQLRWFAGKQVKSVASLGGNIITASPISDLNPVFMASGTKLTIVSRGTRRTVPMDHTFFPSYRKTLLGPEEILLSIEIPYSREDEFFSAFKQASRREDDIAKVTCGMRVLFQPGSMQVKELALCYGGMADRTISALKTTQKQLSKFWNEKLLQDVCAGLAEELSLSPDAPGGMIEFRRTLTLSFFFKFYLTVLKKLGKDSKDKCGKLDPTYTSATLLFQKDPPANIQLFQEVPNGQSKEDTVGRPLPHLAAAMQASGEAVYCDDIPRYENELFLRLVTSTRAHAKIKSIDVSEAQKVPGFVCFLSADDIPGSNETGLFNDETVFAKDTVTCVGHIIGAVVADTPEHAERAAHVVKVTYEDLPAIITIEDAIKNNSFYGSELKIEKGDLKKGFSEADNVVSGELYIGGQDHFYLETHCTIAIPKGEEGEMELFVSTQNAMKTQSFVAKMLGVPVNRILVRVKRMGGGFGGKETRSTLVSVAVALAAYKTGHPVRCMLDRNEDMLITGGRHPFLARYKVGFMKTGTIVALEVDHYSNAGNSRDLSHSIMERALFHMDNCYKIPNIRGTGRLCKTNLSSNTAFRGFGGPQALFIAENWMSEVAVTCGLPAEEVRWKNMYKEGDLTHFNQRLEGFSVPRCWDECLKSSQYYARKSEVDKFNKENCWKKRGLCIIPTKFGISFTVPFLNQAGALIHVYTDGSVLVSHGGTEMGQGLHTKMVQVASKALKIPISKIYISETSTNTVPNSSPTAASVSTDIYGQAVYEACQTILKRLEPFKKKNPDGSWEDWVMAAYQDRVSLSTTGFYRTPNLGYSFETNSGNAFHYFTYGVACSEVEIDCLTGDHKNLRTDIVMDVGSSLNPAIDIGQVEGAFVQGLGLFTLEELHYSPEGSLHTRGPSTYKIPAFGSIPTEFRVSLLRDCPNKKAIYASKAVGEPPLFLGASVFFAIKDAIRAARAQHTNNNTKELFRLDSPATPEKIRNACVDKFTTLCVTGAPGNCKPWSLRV
Description: The assay mixture consisting of 50 μL of test solution, 35 μL of 70 mM phosphate buffer (pH 7.5), and 30 μL of enzyme solution (0.01 units/mL in 70 mM phosphate buffer, pH 7.5) was prepared immediately before use. […] The reaction was stopped by adding 25 μL of HCl 1 N, and the absorbance at 290 nm was measured with a Shimadzu UV-1800. […] XO inhibitory activity was expressed as the percentage inhibition of XO in the above assay system, calculated as (1 − B/A) × 100, where A and B are the activities of the enzyme without and with the test material. IC50 values were calculated from the mean values of data from four determinations.

SMILES: COc1ccc(/C=C/C(=O)c2ccccc2)cc1OC [Compound 15, 3,4-dimethoxychalcone]
IC50 [1]: > 100 µM

SMILES: O=C(/C=C/c1ccc(O)cc1O)c1ccc(O)cc1O [Compound 6, 2,4,2′,4′-tetrahydroxychalcone]
IC50 [1]: 16.3 µM

SMILES: O=C(/C=C/c1ccccc1)c1ccccc1 [Compound 18, chalcone]
XO inhibitory activity (in words) [1]: not displayed xanthine oxidase inhibitory activity
IC50 [1]: > 100 µM

SMILES: COc1ccc(/C=C/C(=O)c2ccc(O)cc2O)c(O)c1 [Compound 12, 2,2ʹ,4ʹ-trihydroxy-4-methoxychalcone]
IC50 [1]: 21.8 µM

SMILES: O=C(/C=C/c1ccc(O)c(O)c1)c1ccccc1 [Compound 3, 3,4-dihydroxychalcone]
IC50 [1]: 40.9 µM

SMILES: COc1ccc(/C=C/C(=O)c2ccc(O)cc2O)cc1O [Compound 8, 3,2ʹ,4ʹ-trihydroxy-4-methoxychalcone]
IC50 [1]: 36.7 µM

SMILES: CC(=O)Oc1ccc(C(=O)/C=C/c2ccc(OC(C)=O)c(OC(C)=O)c2)c(O)c1 [Compound 17, 3,4,4ʹ-triacetoxy-2ʹ-hydroxychalcone]
melting point: 110 to 111 °C
IC50 [1]: > 100 µM

SMILES: COc1ccc(C(=O)/C=C/c2ccc(O)c(O)c2)c(O)c1C(=O)/C=C/c1ccc(O)c(O)c1 [Compound 13, 3ʹ-caffeoyl-3,4,2ʹ-trihydroxy-4ʹ-methoxychalcone]
melting point: 200 to 201 °C
XO inhibitory activity (in words) [1]: most potent active
IC50 [1]: 2.4 µM

Second part, the compound after the results:

XO inhibitory activity (in words) [1]: do not show activity
IC50 [1]: > 100 µM
SMILES: O=C(/C=C/c1ccccc1)c1ccc(O)cc1O [Compound 4, 2′,4′-dihydroxychalcone]

IC50 [1]: > 100 µM
SMILES: COc1ccc(C(=O)/C=C/c2ccc(OC)c(OC)c2)c(O)c1 [Compound 16, 2ʹ-hydroxy-3,4,4ʹ-trimethoxychalcone]

IC50 [1]: > 100 µM
SMILES: COc1ccc(/C=C/C(=O)c2ccc(O)cc2O)cc1OC [Compound 9, 2ʹ,4ʹ-dihydroxy-3,4-dimethoxychalcone]

IC50 [1]: 2.5 µM
SMILES: COc1ccc(C(=O)/C=C/c2ccc(O)c(O)c2)c(OC)c1 [Compound 11, 3,4-dihydroxy-2ʹ,4ʹ-dimethoxychalcone]

IC50 [1]: > 100 µM
SMILES: COc1ccc(/C=C/C(=O)c2ccccc2)cc1O [Compound 14, 3-hydroxy-4-methoxychalcone]

IC50 [1]: 19.2 µM
SMILES: COc1ccc(C(=O)/C=C/c2ccc(O)c(O)c2)c(O)c1 [Compound 10, 3,4,2ʹ-trihydroxy-4ʹ-methoxychalcone]

IC50 [1]: 4.3 µM
SMILES: O=C(/C=C/c1ccc(O)c(O)c1)c1ccc(O)cc1O [Compound 5, 3,4,2ʹ,4ʹ-tetrahydroxychalcone]
